According to ChEMBL document CHEMBL3244292, “Imidazo[4,5-f]quinolines. 2. A series of 9-(substituted amino)imidazo[4,5-f]quinolines as antitapeworm agents” (1977):
Calls of active or inactive are those of the source. The calls are words filed in the database; no cut-off is given here.

Key:
Rodentolepis nana [1] = experiment: Anthelmintic activity against Hymenolepis nana infected in mouse assessed as reduction in worm burden at 100 mg/kg administered bid for 3 days relative to control; type: functional; set-up: scale not given: the % may be the effect or the level left
Rodentolepis nana [2] = experiment: Anthelmintic activity against Hymenolepis nana infected in mouse assessed as reduction in worm burden at 10 mg/kg administered bid for 3 days relative to control; type: functional, organism-based; set-up: dose 10 mg/kg
Rodentolepis nana [3] = experiment: Anthelmintic activity against Hymenolepis nana infected in mouse assessed as reduction in worm burden at 25 mg/kg administered bid for 3 days relative to control; type: functional; set-up: scale not given: the % may be the effect or the level left
Rodentolepis nana [4] = experiment: Anthelmintic activity against Hymenolepis nana infected in mouse assessed as reduction in worm burden at 50 mg/kg administered bid for 3 days relative to control; type: functional; set-up: scale not given: the % may be the effect or the level left

## Cc1cc(Nc2ccc(N3CCN(Cc4ccccc4)CC3)c(Cl)c2)c2c(ccc3nc[nH]c32)n1
Rodentolepis nana [1]
  Activity: 100%
Rodentolepis nana [2]
  Activity: inactive
Rodentolepis nana [3]
  Activity: 77%
Rodentolepis nana [4]
  Activity: 100%

## CC(=O)c1ccc(Nc2cc(C)nc3ccc4nc[nH]c4c23)cc1
Rodentolepis nana [1]
  Activity: 100%
Rodentolepis nana [2]
  Activity: inactive
Rodentolepis nana [3]
  Activity: 56%
Rodentolepis nana [4]
  Activity: 100%

## Cc1cc(Nc2ccc(OCCC(C)C)c(OCCC(C)C)c2)c2c(ccc3nc[nH]c32)n1
Rodentolepis nana [1]
  Activity: 100%
Rodentolepis nana [2]
  Activity: inactive
Rodentolepis nana [3]
  Activity: 67%
Rodentolepis nana [4]
  Activity: 100%

## CCCCCCOc1ccc(C(=N)N(CCCC)CCCC)c2ccccc12 [BUNAMIDINE]
Rodentolepis nana [1]
  Activity: 100%
Rodentolepis nana [2]
  Activity: inactive
Rodentolepis nana [3]
  Activity: 30%
Rodentolepis nana [4]
  Activity: 59%

## Cc1cc(Nc2ccc(OCC(C)C)c(OCC(C)C)c2)c2c(ccc3nc[nH]c32)n1
Rodentolepis nana [1]
  Activity: 100%
Rodentolepis nana [2]
  Activity: inactive
Rodentolepis nana [3]
  Activity: 77%
Rodentolepis nana [4]
  Activity: 78%

## COc1cc(Nc2cc(C)nc3ccc4nc[nH]c4c23)c(OC)cc1Cl
Rodentolepis nana [1]
  Activity: 100%
Rodentolepis nana [2]
  Activity: inactive
Rodentolepis nana [3]
  Activity: 100%
Rodentolepis nana [4]
  Activity: 72%

## CCCC(C)Oc1ccc(Nc2cc(C)nc3ccc4nc[nH]c4c23)cc1OC(C)CCC (configuration not stated)
Rodentolepis nana [1]
  Activity: 100%
Rodentolepis nana [2]
  Activity: inactive
Rodentolepis nana [3]
  Activity: 92%
Rodentolepis nana [4]
  Activity: 100%

## CCCCOc1cc(Nc2cc(C)nc3ccc4nc[nH]c4c23)c(OCCCC)cc1Cl
Rodentolepis nana [1]
  Activity: 100%
Rodentolepis nana [2]
  Activity: inactive
Rodentolepis nana [3]
  Activity: 74%
Rodentolepis nana [4]
  Activity: 84%
